Holding throughout (format): in vivo
Experiment [1] deals with Lucilia cuprina larvae. Nature of the experiment: Fly larvae test. The settings on record: 100 ppm. As to the method: 10 mg active compound were dissolved in 0.5 ml dimethylsulphoxide. To prepare a suitable formulation the active compound solution is diluted with water to the respective desired concentration.
About 20 Lucilia cuprina larvae are placed in a test tube that contains ca. 1 cm^3 horse flesh and 0.5 ml of the active compound preparation under test.
After the desired time the death rate in % is determined. Here 100% means that all larvae were killed; 0% means that no larvae were killed.

Experiment [2] concerns horse chestnut scale (Pulvinaria regalis). The experiment can be described thus: Pulvinaria regalis test, preparation poured onto chestnut trees (Example C1). The settings on record: 10 mg per plant, poured on. On the procedure:
(§1) To prepare a suitable active compound preparation 1 part by weight of the active compound is mixed with the given amount of solvent and emulsifier and the concentrate is diluted to the desired concentration with water.
The active compound preparation was poured onto chestnut trees (Castanea vesca). The concentration given relates to the amount of active compound per plant. After a defined time infection was carried out with horse chestnut scale (Pulvinaria regalis).
(§2) After the desired time the death rate in % is determined. Here 100% means that all animals were killed; 0% means that no animals were killed.

Experiment [3] deals with black bean aphid (Aphis fabae). The experiment can be described thus: Aphis fabae test (seed application), Example J. The settings on record: 90 g ai/unit (100,000 seeds), sugar beet seed treatment. On the procedure: as §1
Sugar beet seed (Beta vulgaris) is treated with the active compound preparation and sown into soil. After ca. 4 week the beet plants are infected with the black bean aphid (Aphis fabae).
(§3) After the desired time the death rate in % is determined. Here 100% means that all aphids were killed; 0% means that no aphids were killed.

Experiment [4] deals with caterpillars of the fall army worm (Spodoptera frugiperda). Nature of the experiment: Spodoptera frugiperda test (spray treatment). The following applies: 500 g/ha; spray on maize leaf sections; after 7 d. On the procedure: (§4) To prepare a suitable active compound preparation 1 part by weight of the active compound is mixed with the given amount of solvent and emulsifier and the concentrate is diluted to the desired concentration with water containing emulsifier.
Maize leaf sections (Zea mays) are sprayed with an active compound preparation at the desired concentration and after drying treated with caterpillars of the fall army worm (Spodoptera frugiperda).
After the desired time the activity in % is determined. Here 100% means that all caterpillars were killed; 0% means that no caterpillars were killed.

Experiment [5] has as its system adult Musca domestica, strain WHO(N), sensitive. Nature of the experiment: Test with flies. The settings on record: 100 ppm; after 48 hours. On the procedure:
10 mg of the active compound are dissolved in 0.5 ml dimethylsulphoxide, lower concentrations are prepared by dilution with water.
0.2 ml of this active compound preparation is pipetted onto a sponge (ca. Ø1.5 cm) that has been wetted with 0.8 ml sugar solution. The sponge and 10 test animals are transferred to a dish (4×4 cm, h 2 cm) and covered.
After 48 hours the activity of the active compound preparation is determined. Here 100% means that all flies were killed; 0% means that no flies were killed.

Experiment [6] concerns leafminer fly (Liriomyza trifolii) larvae. Nature of the experiment: Liriomyza trifolii test, spraying of kidney bean plants. The following applies: 100 ppm, spray on kidney bean plants. On the procedure:
as §4
Kidney bean plants (Phaseolus vulgaris) that are infected with the larvae of the leafminer fly (Liriomyza trifolii) are treated by spraying with the active compound mixture at the desired concentration.
After the desired time the activity in % is determined.

The subject of experiment [7] is termites (Odontotermes sp.). Nature of the experiment: Odontotermes test, open land (spray treatment). The following applies: 240 g/ha, spray on obeche wood. On the procedure:
(§5) To prepare a suitable active compound preparation 1 part by weight of the active compound is mixed with the given amount of water to the desired concentration.
Areas of wood of the obeche tree (Triplochiton scleroxylon) are treated by spraying with the active compound preparation at the desired concentration and infected with termites (Odontotermes sp.).
After the desired time the activity in % is determined. Here 100% means that the wood was not infested by termites; 0% means that the wood was infested by termites.

The subject of experiment [8] is adults of the green stink bug (Piezodorus guildingi). Nature of the experiment: Piezodorus guildingi test, open land (spray treatment). The following applies: 300 g/ha, soy bean plants. On the procedure:
as §5
Soy bean plants (Glycine max) infested with the adults of the green stink bug (Piezodorus guildingi) are treated with an active compound preparation at the desired concentration.
After the desired time the death rate in % is determined. Here 100% means that all bugs were killed; 0% means that no bugs were killed.

The subject of experiment [9] is cotton aphid (Aphis gossypii). The experiment can be described thus: Aphis gossypii test (soil application). The following applies: 4 ppm in soil, cotton plant. On the procedure:
as §1
The active compound mixture was mixed with soil. The concentration given refers to amount of active compound per volume unit of soil (mg/l=ppm). Pots are filled with the treated earth and planted with a cotton plant (Gossypium hirsutum). After one week the plants are infected with the cotton aphid (Aphis gossypii).
as §3

Experiment [10] relates to adult Ctenocephalides felis, strain "Georgi". Nature of the experiment: Test with cat fleas/oral administration. The following applies: 100 ppm in citrated bovine blood. On the procedure: To prepare a suitable formulation a suitable active compound solution was prepared from 10 mg active compound with 0.5 ml DMSO. 10 μl of this formulation was added to 2 ml citrated bovine blood and stirred.
20 fasting adult fleas (Ctenocephalides felis, strain “Georgi”) were placed in a chamber (Ø5 cm) that is closed with cheese cloth at the top and bottom. A metal cylinder the underside of which is closed with Parafilm is placed on the chamber. The cylinder contains the 2 ml blood-active compound formulation which can be consumed by the fleas through the Parafilm membrane.
Whilst the blood is warmed to 37° C. the region of the flea chamber is at room temperature. Controls were carried out with the same volume of DMSO without compound addition.
After the desired time the death rate in % is determined. Here 100% means that all fleas were killed; 0% means that no fleas were killed.

In experiment [11] the test system is white fly (Bemisia tabaci), normal sensitive strain. Nature of the experiment: Bemisia tabaci test (normal sensitive strain), spraying of infested cotton plants. The settings on record: 100 ppm, spray on cotton plants. On the procedure: as §4
Cotton plants (Gossypium hirsutum) that are infested with eggs, larvae and pupae of the white fly (Bemisia tabaci) are treated by, spraying with the active compound preparation at the desired concentration.
as §2

Experiment [12] relates to cotton aphid (Aphis gossypii). Nature of the experiment: Aphis gossypii test (seed application). The following applies: 4 g ai/ha, cotton seed treatment. As to the method:
as §1
Cotton seeds (Gossypium hirsutum) are treated with the active compound preparation and sown into soil. After ca. 2 week the cotton plants are infected with the cotton aphid (Aphis gossypii). After the desired time the death rate in % is determined. Here 100% means that all aphids were killed; 0% means that no aphids were killed.

Experiment [13] has as its system mealy cabbage aphid (Brevicoryne brassicae). Nature of the experiment: Brevicoryne brassicae test, open land (spray treatment), Example M1. The following applies: 300 g/ha, spray on cabbage plants. On the procedure: as §5
Cabbage plants (Brassica oleracea) that are infested with all stages of the mealy cabbage aphid (Brevicoryne brassicae) are sprayed with an active compound preparation at the desired concentration.
After the desired time the death rate in % is determined. Here 100% means that all nymphs were killed; 0% means that no nymphs were killed.

Experiment [14] relates to black bean aphid (Aphis fabae). Nature of the experiment: Aphis fabae test (seed application), Example D1. The following applies: 90 g per unit (100,000 seeds), sugar beet seed. On the procedure: as §1
Sugar beet seed (Beta vulgaris) is treated with the active compound preparation and sown into the earth. After ca. 4 weeks the beet plants are infected with the black bean aphid (Aphis fabae).
as §3

“And” between values parts separate entries of the source, which are not always exact repeats. Equal values may be shown once.

As for `CN(Cc1ccc(Cl)nc1)C1=CC(=O)OC1` [Compound 84], the “death rate after 2 days” value in experiment [1] and in [10] was 100% throughout. Further, the “death rate after 30 days” value in experiment [2] worked out at 100%. Besides, the “Activity in % after 7 d” value is 100% in [3]; 55% and 46% in [6]; 100% in experiment [9]; 100% in [12]. For the same compound, the “Death rate in % after 7 d” value in experiment [4] came to 100%. The compound also gave an activity in experiment [5] of 80%. Also, the “activity after 45 days” value in experiment [7] (after 45 days) is reported as 99%. In addition, in [8], the “death rate after 11 days” value is on record as 100%. Besides, the “Death rate in % after 14 d” value in [11] is recorded as 100%. Further, the “death rate after 28 days” value in experiment [13] was 96%.
On to `O=C1C=C(N(Cc2ccc(Cl)nc2)C2CC2)CO1` [Compound 88], for which the “death rate after 2 days” value in experiment [1] is recorded as 100%. For the same compound, the “Death rate in % after 7 d” value in experiment [4] is 100%. Further, the “death rate after 7 days” value in experiment [14] stood at 100%. Also, the “activity after 65 days” value in experiment [7] (after 65 days) stood at 95%. Moreover, the “Activity in % after 7 d” value in experiment [9] and in experiment [12] was 100% in each case. The “death rate after 28 days” value in experiment [13] was 99%.
